Source: patent US11492346B2, “Benzisoxazole sulfonamide derivatives” (Pfizer Inc., priority 2019, dated 2022)
Like-named read-outs stand apart in the source and are kept apart here.

Tests used:
Assay type in all cases: biochemical
[1] = target: KAT7 (Homo sapiens (Human), UniProt O95251); experiment: KAT assay (SAMDI mass spectrometry), KAT7;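 note: Baculovirus-expressed enzyme acetylating a histone peptide at room temperature, percent conversion from product and substrate peak areas, Ki from a Morrison tight-binding competitive fit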
[2] = target: KAT6A (Homo sapiens (Human), UniProt Q92794); experiment: KAT assay (SAMDI mass spectrometry), KAT6A;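 note: Baculovirus-expressed KAT6A acetylating histone H3 (1-21) peptide (2 µM), 30-60 min at room temperature, % product conversion fitted to Morrison equation for tight-binding competitive inhibitors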
[3] = target: KAT8 (Homo sapiens (Human), UniProt Q9H7Z6); experiment: KAT assay (SAMDI mass spectrometry), KAT8; settings: read-out: KAT8 Ki at 1 μM AcCoA
[4] = target: KAT6B (Homo sapiens (Human), UniProt Q8WYB5); experiment: KAT assay (SAMDI mass spectrometry), KAT6B
[5] = target: KAT5 (Homo sapiens (Human), UniProt Q92993); experiment: KAT assay (SAMDI mass spectrometry), KAT5; settings: read-out: KAT5 Ki at 1 μM AcCoA;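 note: Baculovirus-expressed KAT5 acetylating a histone H4 peptide at room temperature, read as percent conversion to product, Ki from a Morrison tight-binding competitive fit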
[6] = read-out: KAT7 Ki at 1 μM AcCoA
[7] = read-out: KAT6a Ki at 1 μM AcCoA, 1 μM AcCoA
[8] = read-out: KAT6a Ki at 10 μM AcCoA, 10 μM AcCoA
[9] = 25 μM AcCoA, read-out: KAT6b Ki at 25 μM AcCoA
[10] = read-out: KAT6b Ki at 1 μM AcCoA, 1 μM AcCoA

KAT8, sequence (Q9H7Z6 whole entry): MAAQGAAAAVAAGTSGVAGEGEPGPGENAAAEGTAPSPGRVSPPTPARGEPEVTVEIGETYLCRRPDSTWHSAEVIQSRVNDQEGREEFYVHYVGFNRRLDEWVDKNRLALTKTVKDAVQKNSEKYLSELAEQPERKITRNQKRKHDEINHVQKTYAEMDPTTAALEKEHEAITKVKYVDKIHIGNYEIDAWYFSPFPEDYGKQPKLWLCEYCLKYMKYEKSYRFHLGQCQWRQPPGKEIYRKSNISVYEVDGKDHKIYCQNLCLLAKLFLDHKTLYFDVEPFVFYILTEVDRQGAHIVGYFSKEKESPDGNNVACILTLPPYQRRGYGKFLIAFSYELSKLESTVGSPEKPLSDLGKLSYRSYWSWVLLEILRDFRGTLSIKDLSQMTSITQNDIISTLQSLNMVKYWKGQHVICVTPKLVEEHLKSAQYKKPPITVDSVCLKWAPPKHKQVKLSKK
KAT7, sequence (O95251 whole entry): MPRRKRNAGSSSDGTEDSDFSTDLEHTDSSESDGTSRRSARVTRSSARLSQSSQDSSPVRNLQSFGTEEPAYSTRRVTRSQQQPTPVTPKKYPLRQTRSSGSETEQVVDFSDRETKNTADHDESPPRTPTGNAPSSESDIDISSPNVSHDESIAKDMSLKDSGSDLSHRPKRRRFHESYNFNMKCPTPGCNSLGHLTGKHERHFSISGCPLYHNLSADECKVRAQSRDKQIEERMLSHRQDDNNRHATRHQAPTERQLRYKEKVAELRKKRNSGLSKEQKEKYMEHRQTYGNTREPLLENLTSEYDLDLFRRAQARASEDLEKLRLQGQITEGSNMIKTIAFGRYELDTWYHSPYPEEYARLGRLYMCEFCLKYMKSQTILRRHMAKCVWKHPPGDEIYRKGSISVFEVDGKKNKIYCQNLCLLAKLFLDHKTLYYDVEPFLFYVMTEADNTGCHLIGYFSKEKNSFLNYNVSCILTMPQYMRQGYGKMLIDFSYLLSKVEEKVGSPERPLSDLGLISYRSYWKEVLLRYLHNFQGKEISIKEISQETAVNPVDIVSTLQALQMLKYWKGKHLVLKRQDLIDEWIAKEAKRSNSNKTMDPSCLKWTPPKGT
KAT6B, sequence (Q8WYB5 whole entry): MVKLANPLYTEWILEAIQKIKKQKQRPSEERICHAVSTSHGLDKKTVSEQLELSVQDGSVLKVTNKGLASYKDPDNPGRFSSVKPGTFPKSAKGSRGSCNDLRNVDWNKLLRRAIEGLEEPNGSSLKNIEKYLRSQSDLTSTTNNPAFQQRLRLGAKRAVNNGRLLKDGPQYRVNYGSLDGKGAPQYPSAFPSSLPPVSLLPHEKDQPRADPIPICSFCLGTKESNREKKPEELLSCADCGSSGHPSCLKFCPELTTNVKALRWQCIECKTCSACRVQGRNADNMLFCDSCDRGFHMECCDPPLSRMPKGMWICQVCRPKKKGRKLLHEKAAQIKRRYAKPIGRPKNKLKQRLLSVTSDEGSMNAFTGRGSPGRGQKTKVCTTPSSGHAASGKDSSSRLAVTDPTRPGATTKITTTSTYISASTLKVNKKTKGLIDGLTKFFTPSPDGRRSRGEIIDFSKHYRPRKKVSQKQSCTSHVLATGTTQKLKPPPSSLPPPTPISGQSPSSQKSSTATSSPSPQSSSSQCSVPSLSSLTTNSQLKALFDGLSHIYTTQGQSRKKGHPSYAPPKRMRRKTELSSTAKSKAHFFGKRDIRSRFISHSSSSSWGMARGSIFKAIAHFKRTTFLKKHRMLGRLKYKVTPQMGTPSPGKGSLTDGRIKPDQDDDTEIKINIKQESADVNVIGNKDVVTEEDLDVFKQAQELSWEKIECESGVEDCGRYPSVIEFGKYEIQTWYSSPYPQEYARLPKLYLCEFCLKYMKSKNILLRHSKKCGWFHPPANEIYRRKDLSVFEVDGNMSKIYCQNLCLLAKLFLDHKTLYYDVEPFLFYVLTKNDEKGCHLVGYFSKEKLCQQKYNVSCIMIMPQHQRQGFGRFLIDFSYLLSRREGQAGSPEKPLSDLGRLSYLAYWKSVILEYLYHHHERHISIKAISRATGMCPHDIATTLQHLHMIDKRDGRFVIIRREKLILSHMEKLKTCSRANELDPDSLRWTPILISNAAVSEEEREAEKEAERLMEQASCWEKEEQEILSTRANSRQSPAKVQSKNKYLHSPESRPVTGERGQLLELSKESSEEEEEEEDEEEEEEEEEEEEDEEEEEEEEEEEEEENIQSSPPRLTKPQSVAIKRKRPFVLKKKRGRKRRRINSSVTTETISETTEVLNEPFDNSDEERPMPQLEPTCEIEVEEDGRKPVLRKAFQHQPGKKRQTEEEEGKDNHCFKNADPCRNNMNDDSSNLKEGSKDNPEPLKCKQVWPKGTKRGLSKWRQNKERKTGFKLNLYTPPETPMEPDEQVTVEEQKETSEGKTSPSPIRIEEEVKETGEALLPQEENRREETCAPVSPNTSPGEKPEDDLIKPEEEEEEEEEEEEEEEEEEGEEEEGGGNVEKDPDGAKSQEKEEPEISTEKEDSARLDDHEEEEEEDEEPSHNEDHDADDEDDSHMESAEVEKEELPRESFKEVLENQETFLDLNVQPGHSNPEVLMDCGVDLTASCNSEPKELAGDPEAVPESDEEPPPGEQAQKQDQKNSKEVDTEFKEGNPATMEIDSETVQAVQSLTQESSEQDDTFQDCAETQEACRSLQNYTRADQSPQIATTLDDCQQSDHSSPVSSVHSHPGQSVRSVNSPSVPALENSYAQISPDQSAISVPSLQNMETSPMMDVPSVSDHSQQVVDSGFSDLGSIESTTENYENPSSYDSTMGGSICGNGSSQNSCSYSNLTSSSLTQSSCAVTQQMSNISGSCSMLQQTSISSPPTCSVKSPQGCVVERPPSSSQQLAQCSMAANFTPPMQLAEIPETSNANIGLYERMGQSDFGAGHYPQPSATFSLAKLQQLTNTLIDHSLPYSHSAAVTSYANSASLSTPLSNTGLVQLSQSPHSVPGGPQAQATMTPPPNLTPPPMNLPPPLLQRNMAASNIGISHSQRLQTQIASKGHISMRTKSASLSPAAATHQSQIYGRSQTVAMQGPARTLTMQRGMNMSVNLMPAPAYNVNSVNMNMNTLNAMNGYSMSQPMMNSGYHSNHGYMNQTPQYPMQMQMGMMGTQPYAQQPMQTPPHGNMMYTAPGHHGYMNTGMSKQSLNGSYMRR
KAT5, sequence (Q92993 whole entry): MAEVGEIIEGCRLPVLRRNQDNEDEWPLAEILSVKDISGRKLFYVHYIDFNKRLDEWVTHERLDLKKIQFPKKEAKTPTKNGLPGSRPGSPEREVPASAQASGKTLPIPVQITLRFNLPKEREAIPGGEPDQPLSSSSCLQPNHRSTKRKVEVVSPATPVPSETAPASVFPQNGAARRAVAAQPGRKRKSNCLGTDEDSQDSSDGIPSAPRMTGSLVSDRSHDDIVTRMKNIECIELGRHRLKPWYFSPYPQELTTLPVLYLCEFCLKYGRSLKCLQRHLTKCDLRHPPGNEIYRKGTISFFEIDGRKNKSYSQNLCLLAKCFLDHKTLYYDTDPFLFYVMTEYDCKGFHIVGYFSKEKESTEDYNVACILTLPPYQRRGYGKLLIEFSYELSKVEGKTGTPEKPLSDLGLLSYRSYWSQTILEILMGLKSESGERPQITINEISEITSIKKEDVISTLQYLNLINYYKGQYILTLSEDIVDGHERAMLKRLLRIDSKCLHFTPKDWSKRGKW

Ki [1, 6] [µM]	Ki [2, 7] [µM]	Ki [2, 8] [µM]	Ki [3] [µM]	Ki [4, 9] [µM]	Ki [4, 10] [µM]	Ki [5] [µM]	Ki ([1]; KAT7 Ki at 1 μM AcCoA) [µM]	Ki ([2]; KAT6a Ki at 1 μM AcCoA, 1 μM AcCoA) [µM]	Ki ([2]; KAT6a Ki at 10 μM AcCoA, 10 μM AcCoA) [µM]	Compound
1.72	0.00379	0.00154	17.4		0.00863	9.79				COc1cccc(OC)c1S(=O)(=O)Nc1noc2cc(Cn3nccc3C)cc(OC)c12 [Example 3, 2,6-dimethoxy-N-{4-methoxy-6-[(5-methyl-1H-pyrazol-1-yl)methyl]-1,2-benzoxazol-3-yl}benzene-1-sulfonamide]
0.08	0.00111	0.00138	0.66		0.00268	0.53				COc1ccc(S(=O)(=O)Nc2noc3cc(Cn4cccn4)cc(OC)c23)c(OC)c1 [Example 5]
0.12	0.0015	0.00232	3.32		0.0025	0.98				COc1cccc(F)c1S(=O)(=O)Nc1noc2cc(Cn3cccn3)cc(OC)c12 [Example 6]
0.23	0.021		4.46		0.0283	4.53				COc1cccc(OC)c1S(=O)(=O)Nc1noc2cc(Cn3cc(F)cn3)cc(OC)c12 [Example 7]
9.32	0.00272	0.00465	19.4		0.00227	60.2				COc1cccc(OC)c1S(=O)(=O)Nc1noc2cc(Cn3cccn3)cc(OC(C)C)c12 [Example 10]
5.96	0.00286	0.00557	3.26		0.0146	12.5				COc1cccc(OC)c1S(=O)(=O)Nc1noc2cc(Cn3cccn3)cc(OC3CC3)c12 [Example 11]
0.05	0.00112	0.00049	0.42	0.00105		0.27				COc1cc(OC)c(S(=O)(=O)Nc2noc3cc(Cn4cccn4)cc(OC)c23)c(OC)c1 [Example 14]
0.12	0.00127	0.00064	1.75	0.00173		0.83				COc1ccc(OC(F)(F)F)cc1S(=O)(=O)Nc1noc2cc(Cn3cccn3)cc(OC)c12 [Example 16]
0.09	0.0007	0.00051	0.22	0.00121		0.15				COc1ccc(C)cc1S(=O)(=O)Nc1noc2cc(Cn3cccn3)cc(OC)c12 [Example 17]
0.12	0.00083	0.00038	0.1	0.00096		0.13				COc1ccc(C(C)C)cc1S(=O)(=O)Nc1noc2cc(Cn3cccn3)cc(OC)c12 [Example 18]
0.15	0.00218		0.96	0.00344		0.8				COc1ccc(OC)c(S(=O)(=O)Nc2noc3cc(Cn4cccn4)cc(OC)c23)c1 [Example 19]
12.9	0.0165		17.4		0.0132	11.7				COc1cccc(OC)c1S(=O)(=O)Nc1noc2cc(Cn3ccnn3)cc(OC)c12 [Example 22]
0.04	0.00122	0.00124	1.97	0.00134	0.00087	2.07				COc1cccc(OC)c1S(=O)(=O)Nc1noc2cc(Cn3nccn3)cc(OC)c12 [Example 23]
1.08	0.00274	0.00183	12.5	0.00446		12.5				CCOc1cc(Cn2cccn2)cc2onc(NS(=O)(=O)c3c(OC)cccc3OC)c12 [Example 25]
0.056	0.00032			0.00089						COc1cccc(OC)c1S(=O)(=O)Nc1noc2cc(Cn3cccn3)c(C3CC3)cc12 [Example 31]
0.06	0.0014			0.0021						CCc1ccc(OC)c(S(=O)(=O)Nc2noc3cc(Cn4cccn4)c(F)cc23)c1 [Example 32]
0.008	0.00074			0.00026						COc1cc2c(NS(=O)(=O)c3c(OC)cccc3OC)noc2cc1Cn1cccn1 [Example 39]
0.23	0.00036			0.00036						COc1cccc(OC)c1S(=O)(=O)Nc1noc2cc(Cn3cccn3)c(OC(F)F)cc12 [Example 41]
0.63	0.012			0.043						COCc1ccc(OC)c(S(=O)(=O)Nc2noc3cc(Cn4cccn4)c(F)cc23)c1 [Example 44]
0.049	0.00054	0.00059		0.0012						COc1cccc(OC)c1S(=O)(=O)Nc1noc2cc(Cn3cccn3)c(F)c(OC)c12 [Example 128, N-{5-fluoro-4-methoxy-6-[(1H-pyrazol-1-yl)methyl]-1,2-benzoxazol-3-yl}-2,6-dimethoxybenzene-1-sulfonamide]
0.0106	0.00033									COc1ccccc1S(=O)(=O)Nc1noc2cc(Cn3cccn3)c(F)c(OC)c12 [Example 129]
0.662	0.0283									Cc1ccc(S(=O)(=O)Nc2noc3cc(Cn4cccn4)c(C)cc23)cc1C [Example 131]
0.124	0.0041									COc1ccccc1S(=O)(=O)Nc1noc2cc(Cn3cccn3)c(C)cc12 [Example 132]

Continued, compound first:

Compound	Ki [1, 6] [µM]	Ki [2, 7] [µM]	Ki [2, 8] [µM]	Ki [3] [µM]	Ki [4, 9] [µM]	Ki [4, 10] [µM]	Ki [5] [µM]	Ki ([1]; KAT7 Ki at 1 μM AcCoA) [µM]	Ki ([2]; KAT6a Ki at 1 μM AcCoA, 1 μM AcCoA) [µM]	Ki ([2]; KAT6a Ki at 10 μM AcCoA, 10 μM AcCoA) [µM]
CCc1ccc(OC)c(S(=O)(=O)Nc2noc3cc(Cn4cccn4)cc(OC)c23)c1 [Example 1, 5-ethyl-2-methoxy-N-{4-methoxy-6-[(1H-pyrazol-1-yl)methyl]-1,2-benzoxazol-3-yl}benzene-1-sulfonamide]	0.05	0.00055	0.00043	0.11	0.00114	0.00068	0.12			
COc1cc(Br)cc(OC)c1S(=O)(=O)Nc1noc2cc(Cn3cccn3)cc(OC)c12 [Example 8]	0.06	0.00154	0.00323	2.87	0.00663	0.00574	1.71			
COCc1ccc(OC)c(S(=O)(=O)Nc2noc3cc(Cn4cccn4)cc(OC)c23)c1 [Example 12]	0.92	0.00182	0.0017	1.07	0.00214	0.00188	1.17			
CCc1cc(S(=O)(=O)Nc2noc3cc(Cn4cccn4)cc(OC)c23)c(OC)cc1OC [Example 15]	0.03	0.00065	0.00035	0.17	0.0006		0.07			
COc1cc2c(cc1S(=O)(=O)Nc1noc3cc(Cn4cccn4)cc(OC)c13)CCCC2 [Example 20]		0.00034	0.00087	0.47	0.00408	0.00178	0.15			
COc1ccc2c(c1S(=O)(=O)Nc1noc3cc(Cn4cccn4)cc(OC)c13)CCCC2 [Example 21]	0.12	0.00123		0.83	0.00114		1.03			
COc1cc(C2CC2)cc(OC)c1S(=O)(=O)Nc1noc2cc(Cn3cccn3)cc(OC)c12 [Example 24]	0.02	0.00101	0.00046	0.16	0.00189		0.19			
COc1cc(OC)c(S(=O)(=O)Nc2noc3cc(Cn4cccn4)cc(OC4CC4)c23)c(OC)c1 [Example 26]	7.79	0.00801	0.00316	27.1	0.0127		125			
COc1ccccc1S(=O)(=O)Nc1noc2cc(Cn3cccn3)ccc12 [Example 34]	1.2	0.03			0.0042					
COc1cc2c(cc1S(=O)(=O)Nc1noc3cc(Cn4cccn4)cc(OC)c13)CCCO2 [Example 42]	0.16	0.00072			0.00048					
COc1cccc(OC)c1S(=O)(=O)Nc1noc2cc(Cc3ccccn3)cc(OC)c12 [Example 107, 2,6-dimethoxy-N-[4-methoxy-6-(pyridin-2-ylmethyl)-1,2-benzoxazol-3-yl]benzenesulfonamide]	0.37	0.0017	0.0026		0.0029					
COc1cccc(OC)c1S(=O)(=O)Nc1noc2cc(Cc3ncco3)cc(OC)c12 [Example 110, 2,6-dimethoxy-N-[4-methoxy-6-(1,3-oxazol-2-ylmethyl)-1,2-benzoxazol-3-yl]benzenesulfonamide]					0.0088			0.23	0.0025	0.0021
COc1cccc(OC)c1S(=O)(=O)Nc1noc2cc(Cc3ccon3)cc(OC)c12 [Example 114]	0.22	0.0019			0.002					
COc1cccc(OC)c1S(=O)(=O)Nc1noc2cc(Cc3ncccn3)cc(OC)c12 [Example 116]	0.095	0.003			0.025					
COc1cccc(OC)c1S(=O)(=O)Nc1noc2cc(Cc3cnn(C)c3)cc(OC)c12 [Example 124]	6.29	0.7								
COc1cccc(OC)c1S(=O)(=O)Nc1noc2cc(Cc3cocn3)cc(OC)c12 [Example 127]	0.137	0.0086								
COc1ccccc1S(=O)(=O)Nc1noc2cc(Cn3cccn3)cc(C3CC3)c12 [Example 130]	0.1	0.00077								
COc1ccccc1S(=O)(=O)Nc1noc2cc(Cn3nccn3)cc(OC)c12 [Example 133]	0.0192	0.0029								
